The numbers were not newly measured in patent publication US7858598B2, “Reagents for detection of hypochlorous acid” (Morningside Ventures Limited & Versitech Limited, priority 2007, dated 2010), which cites them from elsewhere.

For the compound `OCl` [hypochlorous acid], the pKa is given as 7.6.

By pKa is commonly meant the negative logarithm of the acid dissociation constant.
